Test results as given in US20120071475A1, “UREA DERIVATIVES HAVING PI3K-INHIBITING ACTIVITY” (SHIONOGI & CO., LTD., priority 2009, published 2012).
Where two headings read alike, the source gives them in different places.

Experiments:
PI3Kγ = PI3Kγ (Homo sapiens, UniProt P48736); assay: PI3Kγ inhibitory activity (Ki value); format: biochemical
Outline: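 Ki derived from IC50 measured at final compound levels of 50–0.05 μmol/L (HTRF read-out; 40 μmol/L ATP, 10 mmol/L MgCl2, 5 mmol/L DTT), IC50 by logistic or two-point linear fit. ATP Km from Lineweaver-Burk over 0.625–80 μmol/L ATP; Ki = IC50/(1+[ATP]/Km).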

PI3Kα = PI3Kα (Homo sapiens, UniProt P42336); assay: PI3Kα inhibitory activity (Ki value); format: biochemical
Description: (§1) According to Example 2 above, after 80 μg/mL PI-3 kinase γ of the enzyme solution (80 μg/mL PI-3 kinase γ, 10 mmol/L MgCl2, 5 mmol/L DTT) was changed to 0.8 μg/mL PI-3 kinase α, an inhibition ratio was calculated by a method similar to the method for measuring PI3Kγ inhibitory activity, and then defined as the PI3Kα inhibitory activity.
The α inhibitory activity (Ki value) of a compound was evaluated according to the following procedure.
According to Example 4 above, a Km value for PI3Kα was determined to calculate a Ki value.

PI3Kδ = PI3Kδ (Homo sapiens, UniProt O00329); assay: PI3Kδ inhibitory activity (Ki value); format: biochemical
Description: as §1, with “158” for “0.8”, “δ,” for “α, an inhibition ratio was calculated by”, “activity was used to calculate an inhibition ratio, which was” for “activity, and then”, “PI3Kδ” for “PI3Kα”
According to Example 4 above, a Km value for PI3Kδ was determined to calculate a Ki value.

[1] = test system: CYP1A2, CYP2C9, CYP2C19, CYP2D6 and CYP3A4 (one value for the five species); assay: CYP inhibition test, five CYP species together (5CYPs_IC50; pooled human liver microsome); format: in vitro ADME; conditions: human, microsomes
Outline: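 Pooled human liver microsomes (0.2 mg/mL) in 50 mM Hepes were incubated with a substrate cocktail of 0.5 μM ethoxyresorufin, 100 μM tolbutamide, 50 μM S-mephenytoin, 5 μM dextromethorphan and 1 μM terfenadine plus NADPH for 15 min at 37 °C. Compound tested at 1–20 μM (4 points). Metabolites read by fluorescence or LC/MS/MS, and IC50 derived by logistic fit against a DMSO control.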

[2] = Metabolic stability test (pooled human liver microsome); format: in vitro ADME; conditions: percentage of test compound remained after 30 minutes, pooled human liver microsome 0.5 mg protein/mL, 1 mmol/L NADPH, 37° C., compound 0.5 μM
Outline: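 Pooled human liver microsomes (0.5 mg protein/mL) incubated with compound and 1 mmol/L NADPH at 37° C. in pH 7.4 Tris buffer for 0 or 30 min. Parent quantified by LC/MS/MS after methanol/acetonitrile quench; value is % remaining at 30 min versus 0 min.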

[3] = class symbols, read-out: PI3K γ Ki
[4] = class symbols, read-out: PI3K α Ki
[5] = class symbols, read-out: PI3K δ Ki

Chain of PI3Kδ (O00329 whole entry, species assumed): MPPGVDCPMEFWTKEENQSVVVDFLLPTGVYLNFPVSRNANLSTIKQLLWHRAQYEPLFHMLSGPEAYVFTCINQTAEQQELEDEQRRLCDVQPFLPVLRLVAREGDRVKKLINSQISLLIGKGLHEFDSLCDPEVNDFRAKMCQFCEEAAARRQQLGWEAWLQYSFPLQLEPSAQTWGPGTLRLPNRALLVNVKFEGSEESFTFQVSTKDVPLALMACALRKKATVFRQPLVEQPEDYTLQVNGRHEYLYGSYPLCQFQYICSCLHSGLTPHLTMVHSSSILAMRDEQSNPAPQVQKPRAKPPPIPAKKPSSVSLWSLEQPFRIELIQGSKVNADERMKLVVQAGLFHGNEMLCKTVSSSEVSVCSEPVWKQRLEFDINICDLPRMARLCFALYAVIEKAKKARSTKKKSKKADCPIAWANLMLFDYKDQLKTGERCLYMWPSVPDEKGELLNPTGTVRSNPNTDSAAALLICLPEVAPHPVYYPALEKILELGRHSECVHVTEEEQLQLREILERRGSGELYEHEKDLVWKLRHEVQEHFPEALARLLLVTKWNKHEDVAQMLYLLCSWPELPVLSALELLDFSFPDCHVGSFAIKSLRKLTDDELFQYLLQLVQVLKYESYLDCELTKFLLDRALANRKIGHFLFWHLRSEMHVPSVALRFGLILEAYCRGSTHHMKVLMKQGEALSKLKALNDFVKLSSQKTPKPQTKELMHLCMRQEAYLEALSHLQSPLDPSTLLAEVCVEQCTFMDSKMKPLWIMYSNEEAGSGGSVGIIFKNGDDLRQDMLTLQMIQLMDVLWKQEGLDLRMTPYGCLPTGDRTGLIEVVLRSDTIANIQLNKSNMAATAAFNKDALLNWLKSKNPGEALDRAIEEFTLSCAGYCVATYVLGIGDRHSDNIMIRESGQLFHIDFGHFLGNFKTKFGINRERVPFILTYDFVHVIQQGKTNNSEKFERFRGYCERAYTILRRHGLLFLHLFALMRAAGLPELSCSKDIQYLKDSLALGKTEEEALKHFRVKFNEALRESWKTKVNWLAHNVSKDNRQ
Chain of PI3Kδ (P27986 whole entry partner, species assumed): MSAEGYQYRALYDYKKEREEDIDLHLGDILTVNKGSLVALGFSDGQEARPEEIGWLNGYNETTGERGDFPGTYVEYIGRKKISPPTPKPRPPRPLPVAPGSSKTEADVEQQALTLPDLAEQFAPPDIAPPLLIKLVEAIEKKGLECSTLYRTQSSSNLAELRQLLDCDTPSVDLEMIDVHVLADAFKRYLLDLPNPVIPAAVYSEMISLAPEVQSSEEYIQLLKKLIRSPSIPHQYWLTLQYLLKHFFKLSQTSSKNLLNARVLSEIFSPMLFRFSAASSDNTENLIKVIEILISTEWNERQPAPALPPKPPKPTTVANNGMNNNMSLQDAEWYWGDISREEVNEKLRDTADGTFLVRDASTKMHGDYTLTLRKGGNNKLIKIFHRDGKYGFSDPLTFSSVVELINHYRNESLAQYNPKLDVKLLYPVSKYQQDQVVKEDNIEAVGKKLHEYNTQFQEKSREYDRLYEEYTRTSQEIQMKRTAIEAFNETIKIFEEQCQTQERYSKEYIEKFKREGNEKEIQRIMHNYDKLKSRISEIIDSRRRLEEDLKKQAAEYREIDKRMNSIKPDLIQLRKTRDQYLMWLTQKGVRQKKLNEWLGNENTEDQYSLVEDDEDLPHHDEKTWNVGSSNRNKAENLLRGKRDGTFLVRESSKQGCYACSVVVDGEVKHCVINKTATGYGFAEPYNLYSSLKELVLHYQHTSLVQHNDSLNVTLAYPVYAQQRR
Chain of PI3Kγ (P48736 whole entry, species assumed): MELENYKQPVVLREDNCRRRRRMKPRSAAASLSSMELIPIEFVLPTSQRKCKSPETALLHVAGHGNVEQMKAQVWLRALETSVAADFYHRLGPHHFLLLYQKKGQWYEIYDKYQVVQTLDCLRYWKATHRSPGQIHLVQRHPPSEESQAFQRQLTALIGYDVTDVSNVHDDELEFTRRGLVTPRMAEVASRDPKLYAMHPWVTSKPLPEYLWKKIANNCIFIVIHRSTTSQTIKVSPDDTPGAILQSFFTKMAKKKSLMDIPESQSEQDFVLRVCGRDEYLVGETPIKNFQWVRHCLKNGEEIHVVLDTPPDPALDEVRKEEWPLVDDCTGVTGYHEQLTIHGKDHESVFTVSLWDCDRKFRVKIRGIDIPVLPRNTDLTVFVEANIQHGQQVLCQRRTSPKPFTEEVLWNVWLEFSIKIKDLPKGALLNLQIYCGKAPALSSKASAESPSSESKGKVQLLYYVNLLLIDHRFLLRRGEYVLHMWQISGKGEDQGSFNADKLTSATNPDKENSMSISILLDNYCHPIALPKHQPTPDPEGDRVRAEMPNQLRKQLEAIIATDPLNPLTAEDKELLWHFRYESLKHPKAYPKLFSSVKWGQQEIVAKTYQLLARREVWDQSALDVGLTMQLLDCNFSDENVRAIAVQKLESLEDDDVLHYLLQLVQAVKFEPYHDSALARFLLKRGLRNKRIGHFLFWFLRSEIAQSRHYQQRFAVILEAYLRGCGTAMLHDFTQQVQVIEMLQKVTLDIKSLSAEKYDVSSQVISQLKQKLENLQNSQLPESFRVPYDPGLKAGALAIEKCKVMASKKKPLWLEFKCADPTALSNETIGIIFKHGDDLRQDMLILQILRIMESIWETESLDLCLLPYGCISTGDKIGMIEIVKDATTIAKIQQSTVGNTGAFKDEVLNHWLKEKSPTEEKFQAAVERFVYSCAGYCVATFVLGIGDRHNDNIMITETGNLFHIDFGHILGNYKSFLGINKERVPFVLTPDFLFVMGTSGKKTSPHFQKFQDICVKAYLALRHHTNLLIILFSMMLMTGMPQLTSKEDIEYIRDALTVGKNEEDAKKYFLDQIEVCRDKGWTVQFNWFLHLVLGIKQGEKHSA
Chain of PI3Kα (P42336 whole entry, species assumed): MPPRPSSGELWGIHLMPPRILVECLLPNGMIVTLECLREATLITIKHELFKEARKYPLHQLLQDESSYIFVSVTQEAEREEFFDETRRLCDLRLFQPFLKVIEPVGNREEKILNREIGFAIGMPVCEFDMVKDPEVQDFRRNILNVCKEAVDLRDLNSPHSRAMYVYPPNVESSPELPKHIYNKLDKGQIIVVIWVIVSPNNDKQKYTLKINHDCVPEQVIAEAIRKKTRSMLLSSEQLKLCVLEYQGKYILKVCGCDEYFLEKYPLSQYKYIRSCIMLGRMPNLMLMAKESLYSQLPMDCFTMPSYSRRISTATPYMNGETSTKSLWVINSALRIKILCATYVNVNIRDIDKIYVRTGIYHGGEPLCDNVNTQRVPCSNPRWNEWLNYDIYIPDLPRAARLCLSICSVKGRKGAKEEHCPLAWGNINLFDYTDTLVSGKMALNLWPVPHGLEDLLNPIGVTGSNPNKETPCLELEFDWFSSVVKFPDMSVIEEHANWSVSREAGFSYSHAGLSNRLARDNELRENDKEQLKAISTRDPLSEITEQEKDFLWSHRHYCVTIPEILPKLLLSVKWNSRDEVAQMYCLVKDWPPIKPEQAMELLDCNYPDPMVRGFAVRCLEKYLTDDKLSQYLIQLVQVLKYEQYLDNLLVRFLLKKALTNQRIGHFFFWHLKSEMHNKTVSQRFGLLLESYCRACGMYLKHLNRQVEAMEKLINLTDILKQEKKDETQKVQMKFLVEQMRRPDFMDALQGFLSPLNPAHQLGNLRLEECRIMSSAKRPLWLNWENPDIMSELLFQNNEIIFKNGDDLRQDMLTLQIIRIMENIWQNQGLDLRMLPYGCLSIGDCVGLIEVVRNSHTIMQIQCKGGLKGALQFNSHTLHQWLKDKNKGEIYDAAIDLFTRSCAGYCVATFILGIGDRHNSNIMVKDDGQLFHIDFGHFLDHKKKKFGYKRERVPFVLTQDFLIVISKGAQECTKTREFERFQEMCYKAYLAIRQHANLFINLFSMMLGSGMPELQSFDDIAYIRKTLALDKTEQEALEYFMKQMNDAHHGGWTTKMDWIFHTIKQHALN
Chain of PI3Kα (P27986 whole entry partner, species assumed): as the sequence (P27986 whole entry partner, species assumed) above

Row | Ki (PI3Kγ; [3]) [nM] | Ki (PI3Kγ; read-out: PI3Kγ Ki value) [nM] | Ki (PI3Kα; [4]) [nM] | Ki (PI3Kα; read-out: PI3Kα Ki value) [nM] | Ki (PI3Kδ; [5]) [nM] | Ki (PI3Kδ; read-out: PI3Kδ Ki value) [nM] | IC50 at 15 min [1] [nM] | hLMS_ox(at 0.5 μM) % [2] [%] | Structure (SMILES)
1 | ≤ 300 | 33 | ≤ 3000 | 1100 | ≤ 3000 | 2000 | > 20000 | – | COc1cncc(-c2ccc3nc(NC(=O)Nc4ccccc4OCCC(C)C)cn3n2)c1 [Compound I-114]
2 | ≤ 30 | 5.5 | ≤ 3000 | – | ≤ 300 | – | – | 87.9 | COc1cc(N2CCc3nc(NC(=O)Nc4cn(C)nc4C(=O)NCC(F)(F)F)sc3C2)nc(OC)n1 [Compound I-148]
3 | – | – | – | – | – | – | – | 84.8 | COc1cc(N2CCc3nc(NC(=O)Nc4ccccc4C(=O)NC(C)C(O)C(F)(F)F)sc3C2)nc(OC)n1 (stereo not shown) [Compound I-139]
4 | – | – | – | – | – | – | ≥ 10000 | – | C[C@@H](CO)NC(=O)c1ccccc1NC(=O)Nc1nc2c(s1)CN(c1cncc(S(C)(=O)=O)c1)CC2 [Compound I-211]
5 | ≤ 3 | 2.3 | > 3000 | – | > 3000 | – | – | – | COc1nc(Cl)cc(N2CCc3nc(NC(=O)Nc4ccccc4C(=O)NC4CCCOC4)sc3C2)n1 (stereo not shown) [Compound I-197]
6 | ≤ 3000 | 830 | > 3000 | – | ≤ 3000 | – | ≥ 10000 | 82.5 | COc1cncc(-c2cc(NC(=O)Nc3ccccc3C(=O)NC(C)C)nn2C)c1 [Compound I-226]
7 | ≤ 30 | 16 | > 3000 | > 7000 | ≤ 300 | 81 | – | 92.6 | Cc1nc(NC(=O)Nc2ccccc2C(=O)NC(C)C)sc1-c1ccc(S(C)(=O)=O)c(F)c1 [Compound I-127]
8 | – | – | – | – | – | – | > 20000 | – | CC(C)NC(=O)c1ccccc1NC(=O)Nc1nc2c(s1)CN(c1cccc(S(C)(=O)=O)c1)CC2 [Compound I-198]
9 | ≤ 30 | 9.6 | > 3000 | > 12000 | ≤ 3000 | 590 | – | – | COc1cc(N2CCc3nc(NC(=O)Nc4ccccc4C(=O)NC(C)C)sc3C2)nc(OC)n1 [Compound I-12]
10 | ≤ 3 | 0.8 | > 3000 | – | > 3000 | – | ≥ 10000 | – | CC(C)NC(=O)c1ccccc1NC(=O)Nc1nc2c(s1)CN(c1cncc(C(F)(F)F)c1)CC2 [Compound I-131]
11 | – | – | – | – | – | – | – | 110 | COc1cc(N2CCc3nc(NC(=O)Nc4ccccc4C(=O)NN4CCN(C)CC4)sc3C2)nc(OC)n1 [Compound I-195]
12 | – | 300 | – | – | – | – | ≥ 10000 | – | Cc1nc(NC(=O)Nc2ccccc2C(=O)NC(C)C)sc1-c1csc(S(=O)(=O)N(C)CCN(C)C)c1 [Compound I-191]
13 | ≤ 3 | 1.4 | > 3000 | – | ≤ 3000 | – | ≥ 10000 | – | COc1nc(Cl)cc(N2CCc3nc(NC(=O)Nc4cnccc4C(=O)NC(C)C)sc3C2)n1 [Compound I-91]
14 | – | – | – | – | – | – | ≥ 10000 | 88.2 | COc1cc(N2CCc3nc(NC(=O)Nc4ccccc4C(=O)NCCF)sc3C2)nc(OC)n1 [Compound I-88]
15 | – | – | – | – | – | – | > 20000 | 88.5 | COc1cc(N2CCc3nc(NC(=O)Nc4ccccc4C(=O)NC4CCOCC4)sc3C2)nc(OC)n1 [Compound I-203]
